In publication PMC11201714, “Insights into the Effects of Ligand Binding on Leucyl-tRNA Synthetase Inhibitors for Tuberculosis: In Silico Analysis and Isothermal Titration Calorimetry Validation” (Biomolecules, 2024):
Converted amounts (≈) assume the structure as drawn.

Key:
[1] = target: T1, leucyl t-RNA synthetase (LeuRS) (Mycobacterium tuberculosis, UniProt P9WFV1); test: biochemical; format: binding; details: for Binding Enthalpy ΔH / Kd: ITC; for Kd: pH 7.0, read-out: Floating Association Constant ka (converted)
T1 construct: purchased Sigma-Aldrich
T1 sequence (P9WFV1 whole entry): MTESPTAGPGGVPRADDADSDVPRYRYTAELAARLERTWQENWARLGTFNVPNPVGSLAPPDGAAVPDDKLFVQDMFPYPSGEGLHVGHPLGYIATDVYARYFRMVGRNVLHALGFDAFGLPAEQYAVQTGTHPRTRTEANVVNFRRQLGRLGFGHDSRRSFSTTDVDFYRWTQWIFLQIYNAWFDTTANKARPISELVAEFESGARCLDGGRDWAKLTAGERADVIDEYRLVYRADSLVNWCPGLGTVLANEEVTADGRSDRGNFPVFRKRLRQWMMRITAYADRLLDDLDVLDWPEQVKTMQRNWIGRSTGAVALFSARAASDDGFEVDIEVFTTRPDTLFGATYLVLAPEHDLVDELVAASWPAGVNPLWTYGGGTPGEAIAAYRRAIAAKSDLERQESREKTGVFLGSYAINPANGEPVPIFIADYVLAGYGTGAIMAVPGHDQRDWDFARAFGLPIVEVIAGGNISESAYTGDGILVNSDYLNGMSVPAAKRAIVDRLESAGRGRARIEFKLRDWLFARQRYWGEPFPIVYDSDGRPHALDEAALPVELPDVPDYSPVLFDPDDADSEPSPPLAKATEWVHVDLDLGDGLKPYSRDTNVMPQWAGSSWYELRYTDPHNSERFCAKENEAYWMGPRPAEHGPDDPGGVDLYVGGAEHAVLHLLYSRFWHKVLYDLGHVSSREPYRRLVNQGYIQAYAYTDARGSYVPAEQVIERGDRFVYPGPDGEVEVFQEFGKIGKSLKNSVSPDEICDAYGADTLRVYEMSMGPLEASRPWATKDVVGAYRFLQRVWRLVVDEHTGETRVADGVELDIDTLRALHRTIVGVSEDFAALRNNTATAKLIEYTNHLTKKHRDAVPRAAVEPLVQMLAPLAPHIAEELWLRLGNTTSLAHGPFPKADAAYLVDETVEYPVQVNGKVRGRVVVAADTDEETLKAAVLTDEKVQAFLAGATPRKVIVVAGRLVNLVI

[2] = test system: Leucyl-tRNA synthetase mRNA; test: Leucyl t-RNA synthetase gene expression inhibition (qPCR); format: cell-based; details: A549 cells, 25 µL (10 mM) overnight, RT-PCR, in words
[3] = test system: Mycobacterium tuberculosis strain H37Rv (ATCC 25618); test: Antimycobacterial activity, well diffusion method; format: cell-based; details: LJM agar, 6 weeks; for MIC: Mycobacterium tuberculosis
[4] = test system: Wild-type Mycobacterium tuberculosis biofilm; test: Inhibition of mycobacterial biofilm formation (crystal violet)
[5] = Conc. of Ligand/Protein 0.0125 µM
[6] = Conc. of Ligand/Protein 0.025 µM
[7] = Conc. of Ligand/Protein 0.050 µM
[8] = Conc. of Ligand/Protein 0.100 µM
[9] = Conc. of Ligand/Protein 0.200 µM
[10] = Conc. of Ligand/Protein 0.400 µM
[11] = Conc. of Ligand/Protein 0.800 µM
[12] = Conc. of Ligand/Protein 1.600 µM
[13] = Conc. of Ligand/Protein 3.20 µM
[14] = Conc. of Ligand/Protein 5.00 µM

| SMILES | ΔH for Ligands ([1]; Conc. of Ligand/Protein 00 µM) [kJ/mol] | ΔH for Ligands [1, 5] [kJ/mol] | ΔH for Ligands [1, 6] [kJ/mol] | ΔH for Ligands [1, 7] [kJ/mol] | ΔH for Ligands [1, 8] [kJ/mol] | ΔH for Ligands [1, 9] [kJ/mol] | ΔH for Ligands [1, 10] [kJ/mol] | ΔH for Ligands [1, 11] [kJ/mol] | ΔH for Ligands [1, 12] [kJ/mol] | ΔH for Ligands [1, 13] [kJ/mol] | ΔH for Ligands [1, 14] [kJ/mol] | Binding Enthalpy ΔH ([1]; 25 °C, pH 7.0, fitted) [kJ/mol] | Kd ([1]; 25 °C) [µM] | Zone of Inhibition [3] [mm] | MIC [3] [mg/L] | OD (biofilm formation) ([4]; Conc. 5.0 (unit not given)) | OD (biofilm formation) ([4]; Conc. 10.0 (unit not given)) | OD (biofilm formation) ([4]; Conc. 15.0 (unit not given)) | OD (biofilm formation) ([4]; Conc. 20.0 (unit not given)) | OD (biofilm formation) ([4]; Conc. 25.0 (unit not given)) | also measured |
| --- | --- | --- | --- | --- | --- | --- | --- | --- | --- | --- | --- | --- | --- | --- | --- | --- | --- | --- | --- | --- | --- |
| CC(C)(N)C(=O)N[C@H](Cc1c[nH]c2ccccc12)C(=O)N[C@H](Cc1c[nH]c2ccccc12)NC=O [Compound 1054, 2-amino-N-((R)-1-(((R)-1-formamido-2-(1H-indol-3-yl)ethyl)amino)-3-(1H-indol-3-yl)-1-oxopropan-2-yl)-2-methylpropanamide] | -82.11 | -76.15 | -68.25 | -60.11 | -52.27 | -41.25 | -29.73 | -20.46 | -13.16 | -10.42 | 00 | -48.23 | 0.158 | 18.45 ± 0.19 | 186.4 ± 0.21 (≈ 393 µM) | 0.5428 | 0.4548 | 0.3425 | 0.2186 | 0.1254 | Binding Enthalpy ΔH [1]: -48.23 kL/mol; LeuRS gene expression (copies of mRNA per cycle) [2]: more effective in down-regulating the LeuRS gene; biofilm formation inhibitory activity ([4]; in words, compared to control / other compounds): higher inhibition in biofilm formation |
| NCC[C@H](O)C(=O)N[C@@H]1C[C@H](N)[C@@H](O[C@H]2O[C@H](CN)[C@@H](O)[C@H](O)[C@H]2O)[C@H](O)[C@H]1O[C@H]1O[C@H](CO)[C@@H](O)[C@H](N)[C@H]1O [Compound 2077, (S)-4-amino-N-((1R,2S,3S,4R,5S)-5-amino-2-(((2S,3R,4S,5S,6R)-4-amino-3,5-dihydroxy-6-(hydroxymethyl)tetrahydro-2H-pyran-2-yl)oxy)-4-(((2R,3R,4S,5S,6R)-6-(aminomethyl)-3,4,5-trihydroxytetrahydro-2H-pyran-2-yl)oxy)-3-hydroxycyclohexyl)-2-hydroxybutanamide] | -84.16 | -80.13 | -73.79 | -61.36 | -55.16 | -41.42 | -31.25 | -20.16 | -13.45 | -10.36 | 00 | -49.87 | 129 | 15.57 ± 0.80 | 147.4 ± 0.8 (≈ 252 µM) | 0.7588 | 0.5358 | 0.3585 | 0.2544 | 0.1456 | – |
| OB1OCc2cc(F)ccc21 [AN2690] | – | – | – | – | – | – | – | – | – | – | – | – | – | – | – | 0.4256 | 0.3658 | 0.2452 | 0.2048 | 0.0980 | LeuRS gene expression (copies of mRNA per cycle) [2]: lower copies of LeuRS |
| CC(C)C(N)C(=O)OCC(CO)OCn1cnc2c(=O)[nH]c(N)nc21 (stereo not drawn) [Compound 1035, 2-((2-amino-6-oxo-1H-purin-9(6H)-yl)methoxy)-3-hydroxypropyl 2-amino-3-methylbutanoate] | -86.84 | -81.65 | -75.56 | -63.41 | -57.85 | -43.88 | -34.16 | -23.10 | -16.25 | -12.65 | 00 | -49.16 | 23.9 | 13.68 ± 0.21 | 119.87 ± 0.1 (≈ 338 µM) | 0.7685 | 0.6255 | 0.5454 | 0.3256 | 0.1854 | – |
